Values of other authors, collected in patent US20110040266A1, “ANTI-INSOMNIA COMPOSITIONS AND METHODS” (priority 2007, published 2011).

Settings: tablet form; administered from 5 hours to 1 hour before waking

For Cc1ccc(-c2nc3ccc(C)cn3c2CC(=O)N(C)C)cc1 [zolpidem, N,N,6-trimethyl-2-p-tolyl-imidazo[1,2-a]pyridine-3-acetamide], the “residual effects of night-time dosing” value is given as “results in residual drowsiness and sleepiness”.
